Results on 87 compounds are retold here after PubChem BioAssay AID1645866 (Buhrlage Lab, Dana-Farber Cancer Institute and Novartis …, 2021).

The experiment concerns the target Ubiquitin carboxyl-terminal hydrolase 28 (Homo sapiens) (UniProt Q96RU2). The experiment is described as follows: Concentration-response biochemical assay confirming initial hits as inhibitors of ubiquitin-specific protease 28 (AID 1645866). The settings on record: purified USP28, ubiquitin-rhodamine fluorescence, 30 min.

Activity calls are given as the source filed them.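 How the source made its calls: active means in confirmatory dose-response testing, peak deubiquitinase inhibition of 30% or more; inactive means the rest.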

Chain of Ubiquitin carboxyl-terminal hydrolase 28 (Homo sapiens) (Q96RU2 whole entry, looked up): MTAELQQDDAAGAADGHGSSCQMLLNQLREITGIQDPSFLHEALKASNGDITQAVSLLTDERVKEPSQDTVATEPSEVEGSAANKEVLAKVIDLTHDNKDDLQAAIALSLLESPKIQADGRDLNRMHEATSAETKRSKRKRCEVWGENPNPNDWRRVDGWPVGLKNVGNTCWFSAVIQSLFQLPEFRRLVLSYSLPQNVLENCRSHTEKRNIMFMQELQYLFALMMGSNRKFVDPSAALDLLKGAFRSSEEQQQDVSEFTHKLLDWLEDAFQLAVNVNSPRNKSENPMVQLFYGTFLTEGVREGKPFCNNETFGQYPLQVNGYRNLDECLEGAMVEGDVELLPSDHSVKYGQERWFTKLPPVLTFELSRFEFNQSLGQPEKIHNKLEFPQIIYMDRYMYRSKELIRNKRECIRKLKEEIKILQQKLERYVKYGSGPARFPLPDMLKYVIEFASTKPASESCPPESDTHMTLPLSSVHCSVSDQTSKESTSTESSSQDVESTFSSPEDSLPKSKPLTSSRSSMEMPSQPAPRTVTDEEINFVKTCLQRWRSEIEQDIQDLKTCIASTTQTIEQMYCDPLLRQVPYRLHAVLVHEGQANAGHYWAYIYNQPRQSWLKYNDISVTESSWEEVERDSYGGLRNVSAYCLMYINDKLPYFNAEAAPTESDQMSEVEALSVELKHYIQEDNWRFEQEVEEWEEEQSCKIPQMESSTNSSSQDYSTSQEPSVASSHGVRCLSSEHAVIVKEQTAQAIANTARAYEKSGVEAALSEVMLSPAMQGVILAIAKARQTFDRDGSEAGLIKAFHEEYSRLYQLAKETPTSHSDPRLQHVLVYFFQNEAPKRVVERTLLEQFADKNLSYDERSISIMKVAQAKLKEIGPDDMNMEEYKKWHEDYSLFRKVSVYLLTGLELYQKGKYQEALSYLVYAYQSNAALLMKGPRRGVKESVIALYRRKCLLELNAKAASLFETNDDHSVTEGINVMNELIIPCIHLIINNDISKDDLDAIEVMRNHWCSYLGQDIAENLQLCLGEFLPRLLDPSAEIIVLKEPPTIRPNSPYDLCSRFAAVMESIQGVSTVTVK

With `COc1ccccc1OCC(=O)Nc1ccc2c(c1)CCC(=O)N2Cc1ccccc1`, the IC50 (as a rule, the concentration that gives 50% inhibition) was > 50 µM (inactive). For `O=C(NCc1ccc(-c2nc3cnccc3o2)cc1)c1ccccc1Br` the value was > 50 µM (inactive). The figure for `CC(C)=CCC/C(C)=C/Cc1c(O)cc2c(c1O)C(=O)OC2` is 2.33 µM.

As for `CCOc1ccc(CCNC(=O)c2cccc3c2C(=O)N(CCOC)C3)cc1OCC`, the IC50 was 16.1 µM. The figure for `Cc1ccc2nc(CCc3ccc(NS(=O)(=O)c4cccc(Cl)c4C)cc3)[nH]c2c1` is 27.1 µM; for `CCC/C=C\C#CC/C=C\CCCCCCCC(=O)O` it is 1.09 µM. Consider `COCCCn1c(C(=O)Nc2ccccc2OC)cc2c(=O)n3ccccc3nc21`, for which the IC50 is 29.9 µM. As to `COc1ccc(C)cc1NC(=O)CSc1nc(C)nc2c1oc1ccccc12`, the IC50 was 22 µM. For `Cc1cc(=O)oc2cc(OCC(=O)Nc3cc(Cl)ccc3N3CCOCC3)ccc12` the value was 41.2 µM; for `CCCn1c(=O)n(CC(=O)c2ccccc2F)c2c(C(N)=O)nc(-c3ccco3)nc21`, > 50 µM (inactive); for `Cc1nn(C)c2c1[C@@H](c1ccc(F)cc1)[C@H](NC(=O)c1ccccc1)C(=O)N2`, 16 µM.

Take `CCCc1nc2sc3c(NCCN4CCOCC4)ncnc3c2c2c1CCC2`: the IC50 was 0.592 µM. Turning to `CCc1ccc2[nH]c3c(c(=O)c2c1)CN(CC(=O)NCc1ccc2c(c1)OCO2)CC3`, the IC50 was 20 µM.

Regarding `Cc1cccc(NC(=O)c2nn(C)c3ccccc3c2=O)c1`, the IC50 is 16.5 µM. The figure for `C=C(NC(=O)C(=C)NC(=O)c1csc(C2=N[C@@H]3c4csc(n4)[C@H]4NC(=O)c5csc(n5)[C@H]([C@](C)(O)[C@@H](C)O)NC(=O)[C@H]5CSC(=N5)/C(=C/C)NC(=O)C([C@@H](C)O)NC(=O)c5csc(n5)C3(CC2)NC(=O)[C@H](C)NC(=O)C(=C)NC(=O)[C@H](C)NC(=O)C([C@@H](C)CC)N[C@@H]2C=Cc3c(C(C)O)cc(nc3[C@H]2O)C(=O)OC4C)n1)C(N)=O` (some centres not stated) is > 50 µM (inactive); for `O=C(NC1CCCC1)C1CC(=O)N(c2cccc(-c3noc(-c4cccs4)n3)c2)C1` (configuration not stated) it is 35.9 µM. Turning to `CCc1ccc(NC(=O)Cc2nnc(-c3ccc4ncccc4c3)o2)cc1`, the IC50 was 25.9 µM. Regarding `Clc1ccc(C[n+]2cc(-c3ccc(Cl)cc3)n3c2CCC3)cc1`, the IC50 was 13.6 µM.

As for `Cc1cc(C(=O)NC2(O)C(=O)c3ccccc3C2=O)n(C)n1`, the IC50 was 19 µM. With `CCCCCCCCCC(CCCCCCCCCC(=O)O)O[C@H]1O[C@@H](COC(C)=O)[C@H](O)[C@@H](O)[C@H]1OC(=O)CC(=O)O` (some centres not stated), the half-maximal inhibitory concentration (IC50) was 18.4 µM.

Turning to `CCN1C[C@@H]2C[C@]2(c2ccccc2OC)C(=O)c2ncccc21`, the IC50 is > 50 µM (inactive). The figure for `Cc1ccc(-c2cnc(C3CC3)o2)cc1S(=O)(=O)Nc1ccc(F)c(Cl)c1` is 32.5 µM; for `COc1cccc2c1NC(=O)C21CCN(C(=O)Nc2cccc(C)c2)CC1` it is 14.6 µM; for `CC(C)(C)n1ncc2c(=O)n(Cc3cccc([N+](=O)[O-])c3)cnc21` it is 6.69 µM. In the case of `Cc1ccc(NC(=O)Cn2c(-n3nc(C)cc3C)nc3c(c2=O)CCCC3)c(C)c1`, the IC50 was 35.8 µM.

`Cc1cnc2nc3c(cc2c1)CN(CCc1ccc(Cl)cc1)CC3`: the IC50 was > 50 µM (inactive). For `Nc1c(C(=O)NCc2ccc3c(c2)OCO3)nnn1Cc1ccc(Br)cc1F` the value was 5.37 µM. Turning to `CCN(CC)C(=O)c1sc(NC(=O)/C=C/c2c(F)cccc2Cl)c(C#N)c1C`, the IC50 is 2.93 µM.

With `CCn1c(CN2CCCC(c3nc(-c4cccnc4)n[nH]3)C2)nc2ccccc21` (configuration not stated), the IC50 is 3.13 µM. For `Cc1ccc(Cl)c(-n2nnc(C(=O)Nc3ccccc3C#N)c2C)c1` the value was 12 µM; for `O=C(CSc1nnc2n1CCCCC2)Nc1ccc2[nH]c(=O)[nH]c2c1`, 34.8 µM. In the case of `O=S1(=O)CCN(Cc2ccccc2)c2c(F)nc(N3CCCCC3)c(F)c21`, the IC50 is > 50 µM (inactive).

On to `O=C(CCc1nnc2n(Cc3ccc(F)cc3)c(=O)c3ccccc3n12)N1CCN(c2ccccn2)CC1`, for which the IC50 was > 50 µM (inactive).

Regarding `COC(=O)c1c(C)[nH]c(C(=O)C(C)OC(=O)CCC2CCCC2)c1C` (configuration not stated), the IC50 is 1.47 µM. The figure for `Nc1ncnc(SCc2ccc(Cl)cc2)n1` is 19.7 µM; for `N#Cc1ccc(Cc2ncc(C(F)(F)F)cc2Cl)s1` it is 8.21 µM; for `c1ccc(-n2nnc(-c3noc(-c4cccnc4)n3)c2-c2ccncc2)cc1` it is 21 µM. The figure for `COc1ccc(-n2ccc(=O)c(-c3nc(-c4ccccc4F)no3)n2)cc1OC` is > 50 µM (inactive); for `CCC(=O)Nc1ccc2c(c1)nc(CSc1nccc(C)n1)n2CC` it is 0.365 µM; for `O=C(Cn1c(CSc2ccccc2)nc2ccccc21)Nc1ccccc1F` it is 26.4 µM. For `Cc1nn(Cc2ccccc2)c(Cl)c1C(=O)NC1CCCc2ccccc21` (configuration not stated) the value was > 50 µM (inactive).

As to `Cc1ccc(C(=O)Nc2ccc3nccnc3c2)cc1`, the IC50 was 9.87 µM. The figure for `COc1ccc(C)cc1NC(=O)COc1ccc2c(c1)OCO2` is 49.6 µM; for `COC1/C=C/OC2(C)Oc3c(C)c(O)c4c(c3C2=O)C(=O)C=C(NC(=O)/C(C)=C\C=C\C(C)C(O)C(C)C(O)C(C)C(OC(C)=O)C1C)C4=O` (configuration not stated) it is 38 µM; for `Cc1cc(C)n(-c2ccc(C(=O)NCc3ccc(F)cc3)cn2)n1` it is 19.7 µM.

As for `COC(=O)CC1CC23OC2(C(=O)c2c(O)cccc2C3=O)C(C)O1` (configuration not stated), the IC50 is 3.55 µM. For `CCn1c(=O)c2ccccc2n(Cc2nc(-c3ccccc3OC)no2)c1=O`, the IC50 is > 50 µM (inactive).

On to `COCCNC(=O)c1ccn(-c2ccc3ccc(-c4ccncc4)cn23)n1`, for which the IC50 was > 50 µM (inactive). For `O=C(C1CCCN(S(=O)(=O)N2CCCCCC2)C1)N1CCN(c2ccccc2)CC1` (configuration not stated) the value was > 50 µM (inactive); for `CCn1cc(-c2cc(C(=O)Nc3cnn(Cc4cccc(F)c4)c3)c3ccccc3n2)cn1`, 42.1 µM; for `O=C(CN1C(=O)C2CCCC2=Nc2ccccc21)Nc1ccc(F)cc1F` (configuration not stated), 26.2 µM. For `CC(=O)c1ccc(NC(=O)/C(=C/c2ccco2)n2nnnc2-c2ccccc2)cc1` the value was 40.5 µM; for `NS(=O)(=O)c1cccc(NS(=O)(=O)c2ccc(/C=C/C(=O)OCC(=O)c3ccc(Br)cc3)cc2)c1`, > 50 µM (inactive). The figure for `CC(C)(C)C(=O)C1C2C(=O)N(c3ccc4c(c3)OCO4)C(=O)C2C2c3ccccc3C=CN12` (configuration not stated) is > 50 µM (inactive); for `Cc1cccc(NC(=O)CSc2ncnc3c2sc2nc(CC(C)C)c4c(c23)CCC4)c1` it is 6.42 µM.

Turning to `O=C(COc1nsnc1N1CCOCC1)Nc1ccc(F)c(F)c1`, the IC50 is > 50 µM (inactive).

As for `O=C(CC1Oc2ccccc2NC1=O)Nc1ccccc1Br` (configuration not stated), the IC50 was 38 µM.

With `COc1ccc(C(=O)N2CCCC3(C2)Nc2cccnc2NC3=NC2CCCC2)cn1` (configuration not stated), the IC50 was > 50 µM (inactive). Consider `Cc1cc(C(=O)Nc2ccc3nc(N4CCN(c5ncccn5)CC4)cc(C)c3c2)ccc1[N+](=O)[O-]`, for which the IC50 is 14.2 µM. For `CN(Cc1ccccc1)S(=O)(=O)c1ccc(S(=O)(=O)N2CCN(C(=O)c3cccnc3)CC2)cc1` the value was 18.8 µM; for `Cc1ccc(S(=O)(=O)N(C)C)cc1NC(=O)Cc1ccc(Cl)c(Cl)c1`, 0.274 µM; for `O=C(CN(Cc1ccc(Cl)cc1)S(=O)(=O)c1ccc(Cl)cc1)N1CCOCC1`, > 50 µM (inactive). For `Cc1ccc(C)c(-n2c(N)c(C(=O)NCCc3ccccc3)c3nc4ccccc4nc32)c1` the value was > 50 µM (inactive); for `Cc1cccc(NC(=O)CN2C(=O)CC(c3ccccc3)S(=O)(=O)c3ccccc32)c1C` (configuration not stated), 21.6 µM. For `CC(OC(=O)c1c2c(nc3ccccc13)CCCCC2)C(=O)Nc1ccc2ccccc2c1` (configuration not stated) the value was 5.1 µM; for `Cc1sc(NC(=O)CNc2ccccc2)nc1-c1ccc2c(c1)CCN2C(=O)C(C)C`, > 50 µM (inactive). Turning to `NC(=O)c1nc(-c2ccccn2)nc2c1[nH]c(=O)n2-c1ccc2c(c1)OCO2`, the IC50 is 6.72 µM. For `c1ccc2c(Cc3nc(-c4ccncc4)no3)cccc2c1` the value was 0.374 µM. For `O=C(NC1CCCCC1)c1cc2c(cn1)[nH]c1ccccc12` the value was 2.51 µM. For `CCC(=O)OCc1cnc(C)c2oc(=O)c(-c3nc(-c4ccccc4)no3)cc12` the value was > 50 µM (inactive); for `O=C(Cn1cncc(C(=O)NC2CCCC2)c1=O)Nc1cccc(F)c1`, 21.6 µM. As to `CCC1=C(c2ccc(C)cc2)S(=O)(=O)NC1=NCC(=O)NCc1ccccc1F`, the IC50 was 33.2 µM. The figure for `O=C(Nc1ccc2c(c1)OCO2)C1CCN(Cc2nc3ccccc3s2)CC1` is 2.4 µM. For `N#Cc1cccc(NC(=O)Nc2cccn(Cc3ccccc3F)c2=O)c1` the value was 4.02 µM; for `CCN1C(SCc2ccccc2F)=NS(=O)(=O)c2ccccc21`, 12.6 µM; for `O=C(Nc1cc(Cl)cc(Cl)c1)c1csnn1`, 15.9 µM. For `COc1ccc(S(=O)(=O)N2CCc3ccccc32)cc1C(=O)Nc1ccc2[nH]c(=O)[nH]c2c1` the value was 9.13 µM. Take `COc1cc(O)c2c(c1)C1=CC(=O)C(O)=C[C@]1(C)OC2=O`: the IC50 was 30.1 µM. For `COc1ccc(OC)c(-c2cc(C(=O)Nc3c(C)nn(Cc4ccccc4)c3C)no2)c1` the value was 1.83 µM; for `COc1ccc(CCNC(=O)[C@H](CCSC)NC(=O)N2CCn3c2nc2ccccc23)cc1OC`, > 50 µM (inactive). The figure for `Cc1cc(Cl)ccc1Nc1nc(Nc2cccc(F)c2)nc2nccnc12` is > 50 µM (inactive). The figure for `CN(C)S(=O)(=O)c1ccc(C(=O)Nc2c(C#N)oc3ccccc23)cc1` is > 50 µM (inactive); for `CCOc1ccc(-c2ccc3nnc(SCC(=O)Nc4cccc(C(C)=O)c4)n3n2)cc1` it is 1.65 µM. `COc1ccc(OCCn2c(C3CC(=O)N(c4cccc(C)c4)C3)nc3ccccc32)cc1` (configuration not stated): the IC50 was 1.57 µM. For `CCC(C)c1ccc(-c2csc(Cn3c(CN4CCN(C)CC4)nc4ccccc4c3=O)n2)cc1` (configuration not stated) the value was 15.3 µM; for `COc1ccc(-c2cc(-c3nnc4n3CCCCC4)n(-c3ccccc3)n2)cc1`, 20.1 µM. For `COc1cccc2c1OCC(C(=O)NCc1ccc(F)cc1)=C2` the value was 21.6 µM.
